Assay results reported in patent US20050101595A1, “N-containing cycloalkyl-substituted amino-thiazole derivatives and pharmaceutical compositions for inhibiting cell proliferation and methods for their use” (PFIZER INC., priority 2003, published 2005).
Where a name gives a salt, the structure may show the parent alone. Read-outs that look alike come from different tables or passages of the source.

Legend:
HCT-116 cell line = experiment: Inhibition of cell growth, tetrazolium salt (MTT) assay; type: cell-based; settings: for IC50: Homo sapiens, HCT-116, 120 h, MTT, three to five days, read-out: HCT-116 IC50; for HCT-116 % Inhibition at 0.25 μM: 0.25 μM compound
Summary of the method: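 HCT-116 cells in McCoy's 5A medium received compound 4 h after plating (0.5% v/v DMSO) and were incubated three to five days at 37° C, 5% CO2. MTT (0.2 mg/mL final) then added for 4 h; DMSO-solubilized formazan read at 540 nm against 0.5% DMSO-treated controls.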

[1] = molecular target: human CDK4 and genetically truncated (1-264) cyclin D3 (Homo sapiens, UniProt P11802); experiment: Inhibition of CDK4/Cyclin D Retinoblastoma Kinase Activity; type: biochemical; settings: for Ki: apparent Ki, CDK4/truncated cyclin D3, Rb fragment substrate, 25 μM ATP
Summary of the method: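 Apparent Ki values derive from fitting activity at varied inhibitor concentrations to a competitive (or competitive tight-binding) model. Kinase reactions used 5 nM CDK4/cyclin D3(1-264), Rb fragment substrate and 25 μM ATP. Incubation ran 20 min at 30 °C, extended to 60 min under linear conditions for tight binders.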

CDK2/Cyclin A = CDK2/Cyclin A (Homo sapiens, UniProt P24941); experiment: Inhibition of CDK2/Cyclin A Retinoblastoma Kinase Activity; type: biochemical; settings: for Ki: apparent Ki, CDK2/proteolyzed cyclin A, Rb fragment substrate, 25 μM ATP; for CDK2 % Inhibition At 0.03 μM: Table 2
Summary of the method: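 Percent inhibition is calculated against DMSO-only wells after subtracting no-enzyme background. The enzyme is human CDK2 complexed with proteolyzed cyclin A, used at 10 nM or 19 nM on an Rb fragment with 25 μM [32/33P]ATP, at pH 7.4 and 30° C.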

[2] = 0.1 μM compound, HCT-116, Table 3
[3] = 0.1 μM compound, HCT-116, Table 4

Chain of human CDK4 and genetically truncated (1-264) cyclin D3 (P11802 whole entry, the tested form may be a part): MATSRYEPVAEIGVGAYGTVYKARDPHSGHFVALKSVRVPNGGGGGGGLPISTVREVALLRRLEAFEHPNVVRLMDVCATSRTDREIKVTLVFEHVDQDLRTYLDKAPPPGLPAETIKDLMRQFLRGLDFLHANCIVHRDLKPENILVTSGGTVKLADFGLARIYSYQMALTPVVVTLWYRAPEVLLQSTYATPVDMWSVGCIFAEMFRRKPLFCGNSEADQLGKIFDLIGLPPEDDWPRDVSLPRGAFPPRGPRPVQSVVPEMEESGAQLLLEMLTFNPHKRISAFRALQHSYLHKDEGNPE
Chain of human CDK4 and genetically truncated (1-264) cyclin D3 (P30281 1-264 partner): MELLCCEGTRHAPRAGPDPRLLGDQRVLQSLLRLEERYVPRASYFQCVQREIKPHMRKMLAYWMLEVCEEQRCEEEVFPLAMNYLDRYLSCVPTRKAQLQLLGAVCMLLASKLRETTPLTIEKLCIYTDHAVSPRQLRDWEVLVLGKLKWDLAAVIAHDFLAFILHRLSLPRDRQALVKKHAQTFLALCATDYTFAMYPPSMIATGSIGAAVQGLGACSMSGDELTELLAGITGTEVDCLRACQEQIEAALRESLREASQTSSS

## Nc1nc(NC2CCN(S(=O)(=O)c3ccc(Cc4ncc[nH]4)nc3)CC2)sc1C(=O)c1c(F)cccc1F [Example I4, 1-(4-Amino-2-{1-[6-(1H-imidazol-2-ylmethyl)-pyridine-3-sulfonyl]-piperidin-4-ylamino}-thiazol-5-yl)-1-(2,6-difluoro-phenyl)-methanone Hydrochloride]
HCT-116 cell line; first HCT-116 column (c4)
  IC50: 1900 nM
HCT-116 cell line; second HCT-116 column (c5)
  IC50: 4700 nM
[1]
  Ki: 1.8 nM
CDK2/Cyclin A
  Ki: < 1 nM

## C[Si](C)(C)NC(=O)N1CCC(Nc2nc(N)c(C(=O)c3c(F)cccc3F)s2)CC1 [Example O2]
HCT-116 cell line; HCT-116, Table 2
  HCT-116 % Inhibition at 0.25 μM: 0%
[1]; 0.03 μM compound, Table 2
  CDK4 % Inhibition at 0.03 μM: 6%
CDK2/Cyclin A; 0.03 μM compound
  CDK2 % Inhibition At 0.03 μM: 34%

## COc1cc(C(=O)N2CCC(Nc3nc(N)c(C(=O)c4c(F)cccc4F)s3)CC2)ccc1C [Example R155]
HCT-116 cell line; HCT-116 cells, at 0.1 μM
  HCT-116 % Inhibition at 0.1 μM: 0%
HCT-116 cell line; HCT-116 cells
  HCT-116 5 Inhibition at 0.25 μM: 67
[1]; at 0.03 μM
  CDK4 % Inhibition at 0.03 μM: 67%
CDK2/Cyclin A; at 0.03 μM
  CDK2 % Inhibition at 0.03 μM: 45%

## CN(C)CCCc1ccc(S(=O)(=O)N2CCC(Nc3nc(N)c(C(=O)c4c(F)cccc4F)s3)CC2)cn1 [Example I12, 1-(4-Amino-2-{1-[6-(3-dimethylamino-propyl)-pyridine-3-sulfonyl]-piperidin-4-ylamino}-thiazol-5-yl)-1-(2,6-difluoro-phenyl)-methanone]
HCT-116 cell line; first HCT-116 column (c4)
  IC50: 300 nM
HCT-116 cell line; second HCT-116 column (c5)
  IC50: 3400 nM
[1]
  Ki: 1.1 nM
CDK2/Cyclin A
  Ki: 1.3 nM

## Cc1ccc(S(=O)(=O)N[C@@H](Cc2ccccc2)C(=O)N2CCC(Nc3nc(N)c(C(=O)c4c(F)cccc4F)s3)CC2)cc1 [Example R75]
HCT-116 cell line; HCT-116 cells, at 0.1 μM
  HCT-116 % Inhibition at 0.1 μM: 0%
HCT-116 cell line; HCT-116 cells
  HCT-116 5 Inhibition at 0.25 μM: 41
[1]; at 0.03 μM
  CDK4 % Inhibition at 0.03 μM: 13%
CDK2/Cyclin A; at 0.03 μM
  CDK2 % Inhibition at 0.03 μM: 26%

## Nc1nc(NC2CCN(C(=O)NC(=O)c3ccccc3)CC2)sc1C(=O)c1c(F)cccc1F [Example O26]
HCT-116 cell line; HCT-116, Table 2
  HCT-116 % Inhibition at 0.25 μM: 12%
[1]; 0.03 μM compound, Table 2
  CDK4 % Inhibition at 0.03 μM: 10%
CDK2/Cyclin A; 0.03 μM compound
  CDK2 % Inhibition At 0.03 μM: 33%

## Nc1nc(NC2CCN(S(=O)(=O)c3ccc(CCN4CCC(O)C4)nc3)CC2)sc1C(=O)c1c(F)cccc1F (stereo not drawn) [Example N7, [4-Amino-2-(1-{6-[2-(3-hydroxy-pyrrolidin-1-yl)-ethyl]-pyridine-3-sulfonyl}-piperidin-4-ylamino)-thiazol-5-yl]-(2,6-difluoro-phenyl)-methanone Hydrochloride Salt.]
HCT-116 cell line; first HCT-116 column (c4)
  IC50: 890 nM
HCT-116 cell line; second HCT-116 column (c5)
  IC50: 4000 nM
[1]
  Ki: 0.35 nM
CDK2/Cyclin A
  Ki: 0.93 nM

## Nc1nc(NC2CCN(S(=O)(=O)c3ccc(Sc4ccncc4)cc3)CC2)sc1C(=O)c1c(F)cccc1F [Example P87]
HCT-116 cell line; [2]
  HCT-116 % Inhibition at 0.1 μM: 9%
HCT-116 cell line; HCT-116, Table 3
  HCT-116 % Inhibition at 0.25 μM: 22%
[1]; 0.03 μM compound, Table 3
  CDK4 % Inhibition at 0.03 μM: −5%
CDK2/Cyclin A; 0.03 μM compound, Table 3
  CDK2 % Inhibition at 0.03 μM: −25%

## COC(=O)c1csc(S(=O)(=O)N2CCC(Nc3nc(N)c(C(=O)c4c(F)cccc4F)s3)CC2)c1OC [Example P70]
HCT-116 cell line; [2]
  HCT-116 % Inhibition at 0.1 μM: 14%
HCT-116 cell line; HCT-116, Table 3
  HCT-116 % Inhibition at 0.25 μM: 27%
[1]; 0.03 μM compound, Table 3
  CDK4 % Inhibition at 0.03 μM: 60%
CDK2/Cyclin A; 0.03 μM compound, Table 3
  CDK2 % Inhibition at 0.03 μM: 37%

## Nc1nc(NC2CCN(C(=O)c3cnc4ccccc4n3)CC2)sc1C(=O)c1c(F)cccc1F [Example Q67]
HCT-116 cell line; [3]
  HCT-116 % Inhibition at 0.1 μM: 9%
HCT-116 cell line; HCT-116, Table 4
  HCT-116 % Inhibition at 0.25 μM: 30%
[1]; 0.03 μM compound, Table 4
  CDK4 % Inhibition at 0.03 μM: 50%
CDK2/Cyclin A; 0.03 μM compound, Table 4
  CDK2 % Inhibition at 0.03 μM: 13%

## Nc1nc(NC2CCN(C(=O)Nc3ccccc3Br)CC2)sc1C(=O)c1c(F)cccc1F [Example O4]
HCT-116 cell line; HCT-116, Table 2
  HCT-116 % Inhibition at 0.25 μM: 4%
[1]; 0.03 μM compound, Table 2
  CDK4 % Inhibition at 0.03 μM: 10%
CDK2/Cyclin A; 0.03 μM compound
  CDK2 % Inhibition At 0.03 μM: 27%

## COc1ccc(C(=O)N2CCC(Nc3nc(N)c(C(=O)c4c(F)cccc4F)s3)CC2)cc1OC [Example Q21]
HCT-116 cell line; [3]
  HCT-116 % Inhibition at 0.1 μM: 16%
HCT-116 cell line; HCT-116, Table 4
  HCT-116 % Inhibition at 0.25 μM: 51%
[1]; 0.03 μM compound, Table 4
  CDK4 % Inhibition at 0.03 μM: 14%
CDK2/Cyclin A; 0.03 μM compound, Table 4
  CDK2 % Inhibition at 0.03 μM: −23%
